Series [1] concerns Na+ channel (site 2). Briefly: Off-target screening (Eurofins Cerep), Na+ channel. The format is binding. As to conditions: reference compound, format An. An excerpt:
(§1) Off-target interactions are binding of tracers to other components on the cell surface than the actual target site. These non-specific interactions are often of low affinity and easily missed, but can have significant effects. We outsourced the screening for in vitro for off-target interactions of cRGD-ZW800-1 to Eurofins Cerep SA, Le bois l’Evêque, France. They assessed the percentage of inhibition of a reference compound in 44 selected targets, including G protein-coupled receptors (GPCRs), transporters, ion channels, nuclear receptors, kinases and other non-kinase enzymes. These targets were recommended by four major pharmaceutical companies. The complete list is included in Supplementary Table 1 of the Supplementary Data. Each assay was performed twice using 10 μM cRGD-ZW800-1 and a reference compound. Inhibition higher than 50% was considered to represent a significant effect of cRGD-ZW800-1. Results showing between 20% and 50% were considered weak to moderate effects, while lower than 20% was not considered significant and mostly attributable to variability of the signal around the control level.

The conditions of series [2]: human, in vivo, iv; cited from earlier work. An excerpt:
Besides interacting with extracellular matrix proteins, integrin αvβ3 can also modulate intracellular pathways essential for COX-2 expression. The inhibition of COX-2 as shown in the in vitro off-target screening may be the result of binding cRGD-ZW800-1 to integrin αvβ3.

Series [3] relates to KV channel. The experiment in a line: Off-target screening (Eurofins Cerep), KV channel. In kind it is binding. As to conditions: reference compound, format An.
From the text: as §1

Series [4] concerns GABA channels BZD (central). Briefly: Off-target screening (Eurofins Cerep), BZD (central). The format is binding. As to conditions: reference compound, format Ag.
From the text: as §1

In series [5] the target is T1, Adrenergic α1A (Homo sapiens, UniProt P35348).
T1 construct: Eurofins Cerep SA (contract screening)
T1 sequence (P35348 1-466): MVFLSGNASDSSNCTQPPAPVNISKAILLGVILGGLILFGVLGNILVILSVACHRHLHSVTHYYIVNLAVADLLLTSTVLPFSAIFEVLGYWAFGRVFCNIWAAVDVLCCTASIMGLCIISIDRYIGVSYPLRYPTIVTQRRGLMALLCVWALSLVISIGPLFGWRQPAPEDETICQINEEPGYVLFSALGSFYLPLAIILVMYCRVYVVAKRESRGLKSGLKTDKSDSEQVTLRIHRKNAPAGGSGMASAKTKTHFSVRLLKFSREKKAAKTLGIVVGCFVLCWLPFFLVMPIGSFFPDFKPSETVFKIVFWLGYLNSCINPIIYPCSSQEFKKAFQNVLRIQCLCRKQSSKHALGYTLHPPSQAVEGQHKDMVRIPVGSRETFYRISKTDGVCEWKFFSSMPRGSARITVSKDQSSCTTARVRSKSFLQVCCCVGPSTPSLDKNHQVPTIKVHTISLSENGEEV
Briefly: Off-target screening (Eurofins Cerep), α1A. The format is binding. As to conditions: reference compound, format H, An.
From the text: as §1

For series [6], the target named is T2, 5-hydroxytryptamine (serotonin) receptor 2B (5-HT2B) (Homo sapiens, UniProt P41595).
T2 construct: Eurofins Cerep SA (contract screening)
The experiment in a line: Off-target screening (Eurofins Cerep), 5-HT2B. The format is binding. As to conditions: reference compound, format H, Ag.
From the text: as §1

T2 sequence (P41595 whole entry): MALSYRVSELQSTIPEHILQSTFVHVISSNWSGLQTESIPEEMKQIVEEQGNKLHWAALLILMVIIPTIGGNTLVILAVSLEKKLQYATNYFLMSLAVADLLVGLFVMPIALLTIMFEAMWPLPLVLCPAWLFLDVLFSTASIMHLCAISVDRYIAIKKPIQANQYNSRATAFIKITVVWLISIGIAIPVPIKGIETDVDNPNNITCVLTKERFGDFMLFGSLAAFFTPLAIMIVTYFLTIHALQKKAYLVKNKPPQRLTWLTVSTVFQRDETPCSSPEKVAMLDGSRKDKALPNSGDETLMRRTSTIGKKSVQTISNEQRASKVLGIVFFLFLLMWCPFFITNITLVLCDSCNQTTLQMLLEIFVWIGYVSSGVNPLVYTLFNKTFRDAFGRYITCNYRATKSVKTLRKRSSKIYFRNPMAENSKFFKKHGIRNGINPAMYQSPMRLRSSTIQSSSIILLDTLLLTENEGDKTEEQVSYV

As for `COc1ccc(C(=O)O[C@H]2CC[C@@]3(C)[C@@H]4CC[C@H]5[C@]6(O)C[C@H](O)[C@@]7(O)[C@@H](CN8C[C@@H](C)CC[C@H]8[C@@]7(C)O)[C@]6(O)C[C@@]53O[C@]24O)cc1OC` [Veratridine, reference compound], the IC50 in series [1] came to 6800 nM.

On to cilengitide, for which the side effects entry in series [2] is recorded as “without serious side effects”.

Alpha -dendrotoxin [reference compound] came in with an IC50 in series [3] of 0.23 nM.

As for `CN1C(=O)CN=C(c2ccccc2)c2cc(Cl)ccc21` [Diazepam, reference compound], in series [4], the IC50 was found to be 12 nM.

In series [5], `COc1cccc(OC)c1OCCNCC1COc2ccccc2O1` (stereo not drawn) [WB 4101, reference compound] yielded a half-inhibitory concentration (IC50) of 0.46 nM.

For the molecule `COc1cc(CC(C)N)c(OC)cc1I` (racemic) [(±)DOI, reference compound], the midpoint of inhibition in series [6], the IC50, lay at 4 nM.

Broadly, the IC50 is the concentration that gives 50% inhibition.

Values taken from PMC5400565, “Real-time near-infrared fluorescence imaging using cRGD-ZW800-1 for intraoperative visualization of multiple cancer types” (Oncotarget, 2017).
